Measurements published in paper PMC9542405, “Design, synthesis and antitumor activity of 5-trifluoromethylpyrimidine derivatives as EGFR inhibitors” (Journal of Enzyme Inhibition and Medicinal Chemistry, 2022).

Experiments:
MCF-7 cells = assay: In vitro activity against cancer cell lines (MTT), MCF-7; type: cell-based; conditions: Homo sapiens, MCF7, mean ± SD of three replicates
Text: (§1) Co., Ltd. A549 (Human non-small-cell lung cancer cell line) cells, MCF-7 (Human breast cancer
(§2) cell line) cells, and PC-3 (Human prostate cancer cell line) cells. They were all purchased from the
(§3) Shanghai Cell Bank of the Chinese Academy of Sciences. NRK-52E (Normal rat kidney cell line)
(§4) cells donated by Guizhou Medicinal University were also used to evaluate the cytotoxicity.

A549 cells = assay: In vitro activity against cancer cell lines (MTT), A549; type: cell-based; conditions: Homo sapiens, mean ± SD of three replicates
Text: as §1, §2, §3, §4

PC-3 cells = assay: In vitro activity against cancer cell lines (MTT), PC-3; type: cell-based; conditions: Homo sapiens, mean ± SD of three replicates
Text: as §1, §2, §3, §4

EGFR^wt-TK = biological target: T1, EGFR^wt-TK (Homo sapiens, UniProt P00533); assay: In vitro EGFR^wt-TK assay (ELISA kit); type: biochemical; conditions: mean ± SD of three replicates; for inhibition at 1 µM: read-out: EGFR^wt-TK inhibition rate; for inhibition at 1 µM / EGFR^wt-TK inhibition rate: 1 μM
T1 construct: purchased
T1 sequence (P00533 25-1210): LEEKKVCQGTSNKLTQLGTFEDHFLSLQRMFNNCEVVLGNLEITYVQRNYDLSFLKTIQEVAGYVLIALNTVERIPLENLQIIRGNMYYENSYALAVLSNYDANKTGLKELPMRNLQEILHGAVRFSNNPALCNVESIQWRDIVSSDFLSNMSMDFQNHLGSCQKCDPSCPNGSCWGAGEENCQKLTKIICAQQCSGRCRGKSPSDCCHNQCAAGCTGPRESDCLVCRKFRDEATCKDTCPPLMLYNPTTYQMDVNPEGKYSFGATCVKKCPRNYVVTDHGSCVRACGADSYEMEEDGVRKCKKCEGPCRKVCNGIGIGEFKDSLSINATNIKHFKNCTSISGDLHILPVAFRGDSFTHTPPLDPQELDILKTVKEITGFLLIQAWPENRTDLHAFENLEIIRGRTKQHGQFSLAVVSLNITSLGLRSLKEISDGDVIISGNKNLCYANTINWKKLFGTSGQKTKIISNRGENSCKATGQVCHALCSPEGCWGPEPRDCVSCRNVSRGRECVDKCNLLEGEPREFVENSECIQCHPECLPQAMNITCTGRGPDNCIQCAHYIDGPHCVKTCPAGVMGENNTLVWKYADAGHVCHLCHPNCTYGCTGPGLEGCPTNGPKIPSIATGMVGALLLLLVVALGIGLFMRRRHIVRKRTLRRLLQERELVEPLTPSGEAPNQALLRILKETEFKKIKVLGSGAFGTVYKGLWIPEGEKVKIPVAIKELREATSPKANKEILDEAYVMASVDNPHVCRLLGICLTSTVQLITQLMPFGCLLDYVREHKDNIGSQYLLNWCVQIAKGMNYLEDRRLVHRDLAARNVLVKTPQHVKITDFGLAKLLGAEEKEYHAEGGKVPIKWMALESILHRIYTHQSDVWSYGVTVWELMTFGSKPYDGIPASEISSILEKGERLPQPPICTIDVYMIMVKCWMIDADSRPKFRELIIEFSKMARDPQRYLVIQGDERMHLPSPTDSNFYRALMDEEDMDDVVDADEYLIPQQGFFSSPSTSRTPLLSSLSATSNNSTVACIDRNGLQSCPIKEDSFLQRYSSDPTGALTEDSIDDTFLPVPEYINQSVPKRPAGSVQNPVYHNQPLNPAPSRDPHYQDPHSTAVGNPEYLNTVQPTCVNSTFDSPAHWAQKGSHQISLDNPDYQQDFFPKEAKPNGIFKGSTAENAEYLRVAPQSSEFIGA
Experimental: The IC50 values of target compounds against EGFR^wt were calculated from the dose − response curve under Graph-Pad Prism 9, which was tested at the different concentrations.

Structure (SMILES)	IC50 (MCF-7 cells) [µM]	melting point [°C]	IC50 (A549 cells) [µM]	IC50 (PC-3 cells) [µM]	inhibition at 1 µM (EGFR^wt-TK) [%]	EGFR^wt-TK inhibition rate (EGFR^wt-TK) [%]	IC50 (EGFR^wt-TK) [µM]
CNC(=O)c1sccc1Nc1nc(Nc2ccc(NC(=O)c3ccccc3)cc2)ncc1C(F)(F)F [Compound 9a, 3-[2-(4-Benzoylamino-phenylamino)-5-trifluoromethyl-pyrimidin-4-ylamino]-thiophene-2-carboxylic acid methylamide]	11.9 ± 1.36	212.5 to 213.8	8.51 ± 0.94	14.6 ± 0.83	32.5 ± 2.56		
CNC(=O)c1sccc1Nc1nc(Nc2ccc(NC(=O)c3ccccc3F)cc2)ncc1C(F)(F)F [Compound 9b, 3-{2-[4-(2-Fluoro-benzoylamino)-phenylamino]-5-trifluoromethyl-pyrimidin-4-ylamino}-thiophene-2-carboxylic acid methylamide]	6.05 ± 0.82	213.3 to 215.4	4.03 ± 0.47	11.2 ± 1.68	46.3 ± 1.85		
CNC(=O)c1sccc1Nc1nc(Nc2ccc(NC(=O)c3cccc(F)c3)cc2)ncc1C(F)(F)F [Compound 9c, 3-{2-[4–(3-Fluoro-benzoylamino)-phenylamino]-5-trifluoromethyl-pyrimidin-4-ylamino}-thiophene-2-carboxylic acid methylamide]	5.32 ± 0.74	239.8 to 241.5	2.23 ± 0.42	16.4 ± 2.27	> 50	55.48 ± 1.71	0.31 ± 0.095
CNC(=O)c1sccc1Nc1nc(Nc2ccc(NC(=O)c3ccc(F)cc3)cc2)ncc1C(F)(F)F [Compound 9d, 3-{2-[4-(4-Fluoro-benzoylamino)-phenylamino]-5-trifluoromethyl-pyrimidin-4-ylamino}-thiophene-2-carboxylic acid methylamide]		217.2 to 219.3	3.75 ± 0.55	16.7 ± 1.53	49.38 ± 0.47		
CNC(=O)c1sccc1Nc1nc(Nc2ccc(NC(=O)c3ccc(F)c(F)c3)cc2)ncc1C(F)(F)F [Compound 9e, 3-{2-[4-(3,4-Difluoro-benzoylamino)-phenylamino]-5-trifluoromethyl-pyrimidin-4-ylamino}-thiophene-2-carboxylic acid methylamide]		218.9 to 219.7	2.77 ± 0.59	17 ± 1.82	> 50	54.49 ± 1.44	0.44 ± 0.11
CNC(=O)c1sccc1Nc1nc(Nc2ccc(NC(=O)c3cccc(C(F)(F)F)c3)cc2)ncc1C(F)(F)F [Compound 9f, 3-{5-Trifluoromethyl-2-[4-(3-trifluoromethyl-benzoylamino)-phenylamino]-pyrimidin-4-ylamino}-thiophene-2-carboxylic acid methylamide]	6.54 ± 0.53	232 to 233.5	5.13 ± 0.46	12.2 ± 1.54	41.1 ± 1.79		
CNC(=O)c1sccc1Nc1nc(Nc2ccc(NC(=O)c3ccc(OC)cc3)cc2)ncc1C(F)(F)F [Compound 9g, 3-{2-[4-(4-Methoxy-benzoylamino)-phenylamino]-5-trifluoromethyl-pyrimidin-4-ylamino}-thiophene-2-carboxylic acid methylamide]	10.1 ± 1.18	229.4 to 230.6	7.63 ± 0.62	> 20	28.8 ± 0.62		
CNC(=O)c1sccc1Nc1nc(Nc2ccc(NC(=O)c3cc(OC)c(OC)c(OC)c3)cc2)ncc1C(F)(F)F [Compound 9h, 3-{5-Trifluoromethyl-2-[4-(3,4,5-trimethoxy-benzoylamino)-phenylamino]-pyrimidin-4-ylamino}-thiophene-2-carboxylic acid methylamide]	3.37 ± 0.62	211.9 to 213.1	1.66 ± 0.54	11.3 ± 1.42	> 50	56.43 ± 0.51	0.35 ± 0.062
CNC(=O)c1sccc1Nc1nc(Nc2ccc(NC(=O)C=Cc3ccccc3)cc2)ncc1C(F)(F)F [Compound 9t, 3-{2-[4-(3-Phenyl-acryloylamino)-phenylamino]-5-trifluoromethyl-pyrimidin-4-ylamino}-thiophene-2-carboxylic acid methylamide]	6.45 ± 0.53	212.5 to 213.8	3.67 ± 0.61	> 20	> 50	53.56 ± 1.69	0.26 ± 0.071
CNC(=O)c1sccc1Nc1nc(Nc2ccc(NC(=O)C=Cc3ccc(F)cc3)cc2)ncc1C(F)(F)F [Compound 9v, 3–(2-{4-[3-(4-Fluoro-phenyl)-acryloylamino]-phenylamino}-5-trifluoromethyl-pyrimidin-4-ylamino)-thiophene-2-carboxylic acid methylamide]	4.13 ± 0.21	248.8 to 249.1	0.46 ± 0.27	7.88 ± 1.34	> 50	58.14 ± 1.76	0.14 ± 0.053

Next, values leading:

IC50 (MCF-7 cells) [µM]	melting point [°C]	IC50 (A549 cells) [µM]	IC50 (PC-3 cells) [µM]	inhibition at 1 µM (EGFR^wt-TK) [%]	EGFR^wt-TK inhibition rate (EGFR^wt-TK) [%]	IC50 (EGFR^wt-TK) [µM]	Structure (SMILES)
> 20		17.8 ± 1.67	> 20	11.9 ± 0.35			CCC(=O)Nc1ccc(Nc2ncc(C(F)(F)F)c(Nc3ccsc3C(=O)NC)n2)cc1 [Compound 9i, 3-[2-(4-Propionylamino-phenylamino)-5-trifluoromethyl-pyrimidin-4-ylamino]-thiophene-2-carboxylic acid methylamide]
> 20		> 20	> 20	8.76 ± 0.68			CNC(=O)c1sccc1Nc1nc(Nc2ccc(NC(=O)C(C)C)cc2)ncc1C(F)(F)F [Compound 9j, 3-[2-(4-Isobutyrylamino-phenylamino)-5-trifluoromethyl-pyrimidin-4-ylamino]-thiophene-2-carboxylic acid methylamide]
4.91 ± 0.83		1.82 ± 0.49	15.4 ± 2.38	> 50	55.73 ± 2.14	0.48 ± 0.073	C#CC(=O)Nc1ccc(Nc2ncc(C(F)(F)F)c(Nc3ccsc3C(=O)NC)n2)cc1 [Compound 9k, 3-[2-(4-Propynoylamino-phenylamino)-5-trifluoromethyl-pyrimidin-4-ylamino]-thiophene-2-carboxylic acid methylamide]
> 20	> 250	16.5 ± 2.31	> 20	12.6 ± 1.07			CNC(=O)c1sccc1Nc1nc(Nc2ccc(NC(=O)C3CC3)cc2)ncc1C(F)(F)F [Compound 9l, 3-{2-[4-(Cyclopropanecarbonyl-amino)-phenylamino]-5-trifluoromethyl-pyrimidin-4-ylamino}-thiophene-2-carboxylic acid methylamide]
> 20	236.1 to 236.4	15.1 ± 2.29	> 20	13.3 ± 0.83			CNC(=O)c1sccc1Nc1nc(Nc2ccc(NC(=O)C3CCC3)cc2)ncc1C(F)(F)F [Compound 9m, 3-{2-[4-(Cyclobutanecarbonyl-amino)-phenylamino]-5-trifluoromethyl-pyrimidin-4-ylamino}-thiophene-2-carboxylic acid methylamide]
> 20	246.4 to 247.2	13.8 ± 1.57	> 20	18.9 ± 1.14			CNC(=O)c1sccc1Nc1nc(Nc2ccc(NC(=O)C3CCCC3)cc2)ncc1C(F)(F)F [Compound 9n, 3-{2-[4-(Cyclopentanecarbonyl-amino)-phenylamino]-5-trifluoromethyl-pyrimidin-4-ylamino}-thiophene-2-carboxylic acid methylamide]
13.5 ± 1.24	246.7 to 248.2	8.49 ± 0.63	> 20	26.6 ± 1.38			CNC(=O)c1sccc1Nc1nc(Nc2ccc(NC(=O)C3CCCCC3)cc2)ncc1C(F)(F)F [Compound 9o, 3-{2-[4-(Cyclohexanecarbonyl-amino)-phenylamino]-5-trifluoromethyl-pyrimidin-4-ylamino}-thiophene-2-carboxylic acid methylamide]
10 ± 0.96	232.3 to 233.8	7.28 ± 0.47	> 20	36.46 ± 0.23			CNC(=O)c1sccc1Nc1nc(Nc2ccc(NC(=O)C3CCOCC3)cc2)ncc1C(F)(F)F [Compound 9p, Tetrahydro-pyran-4-carboxylicacid{4-[4-(2-methylcarbamoyl-thiophen-3-ylamino)-5-trifluoromethyl-pyrimidin-2-ylamino]-phenyl}-amide]
10.6 ± 1.58		7.65 ± 0.39	> 20	35.5 ± 0.89			CNC(=O)c1sccc1Nc1nc(Nc2ccc(NC(=O)C3CCC(=O)CC3)cc2)ncc1C(F)(F)F [Compound 9q, N-Methyl-3-((2-((4-(4-oxocyclohexane-1-carboxamido)phenyl)amino)-5-(trifluoromethyl)pyrimidin-4-yl)amino)thiophene-2-carboxamide]
11.2 ± 1.47	210.8 to 211.6	8.41 ± 0.92	> 20	33 ± 0.57			CNC(=O)c1sccc1Nc1nc(Nc2ccc(NC(=O)C3CCN(C)CC3)cc2)ncc1C(F)(F)F [Compound 9r, 1-Methyl-piperidine-4-carboxylicacid{4-[4-(2-methylcarbamoyl-thiophen-3-ylamino)-5-trifluoromethyl-pyrimidin-2-ylamino]-phenyl}-amide]
9.75 ± 0.85	> 250	6.92 ± 0.38	> 20	37.1 ± 0.46			CNC(=O)c1sccc1Nc1nc(Nc2ccc(NC(=O)C3CCN(C(C)=O)CC3)cc2)ncc1C(F)(F)F [Compound 9s, 1-Acetyl-piperidine-4-carboxylicacid{4-[4-(2-methylcarbamoyl-thiophen-3-ylamino)-5-trifluoromethyl-pyrimidin-2-ylamino]-phenyl}-amide]
